For experiment [1], the target named is T1, Gamma-aminobutyric acid receptor subunit alpha-1 (Rattus norvegicus, UniProt P62813). The class given is functional.
In another experiment the target is Vasopressin V2 receptor (Homo sapiens, UniProt P30518).
Another experiment deals with Cannabinoid receptor 1 (Homo sapiens, UniProt P21554). The experiment is classed as functional, cell-based.
For another experiment, the target named is T2, Adenosine receptor A1 (Homo sapiens, UniProt P30542).
T2 sequence (P30542 whole entry): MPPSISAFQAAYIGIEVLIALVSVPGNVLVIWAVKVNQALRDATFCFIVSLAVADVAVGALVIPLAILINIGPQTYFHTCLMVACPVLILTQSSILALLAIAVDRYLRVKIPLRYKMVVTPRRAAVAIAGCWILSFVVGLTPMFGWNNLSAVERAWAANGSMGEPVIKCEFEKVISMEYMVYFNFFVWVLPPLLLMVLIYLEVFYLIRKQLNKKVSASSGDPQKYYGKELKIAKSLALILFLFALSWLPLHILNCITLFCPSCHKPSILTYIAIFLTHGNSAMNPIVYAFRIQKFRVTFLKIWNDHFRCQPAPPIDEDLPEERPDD

Experiment [2] has as its target 5-hydroxytryptamine receptor 2B (Homo sapiens, UniProt P41595). The experiment is classed as functional, cell-based.
The target in the next experiment is Histamine H1 receptor (Homo sapiens, UniProt P35367).
Chain of Histamine H1 receptor (P35367 whole entry): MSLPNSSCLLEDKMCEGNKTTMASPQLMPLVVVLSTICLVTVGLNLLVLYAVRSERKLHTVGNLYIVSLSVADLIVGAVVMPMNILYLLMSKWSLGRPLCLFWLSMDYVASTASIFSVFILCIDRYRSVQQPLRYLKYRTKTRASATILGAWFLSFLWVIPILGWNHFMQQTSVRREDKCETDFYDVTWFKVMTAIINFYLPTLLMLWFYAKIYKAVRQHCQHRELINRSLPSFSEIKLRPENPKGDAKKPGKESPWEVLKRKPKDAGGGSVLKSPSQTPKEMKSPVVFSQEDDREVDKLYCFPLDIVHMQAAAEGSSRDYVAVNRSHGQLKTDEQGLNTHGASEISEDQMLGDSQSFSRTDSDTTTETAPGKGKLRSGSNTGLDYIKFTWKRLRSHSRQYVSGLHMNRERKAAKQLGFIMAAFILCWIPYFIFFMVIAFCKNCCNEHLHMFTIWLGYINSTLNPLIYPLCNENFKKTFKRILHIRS
In experiment [3] the target is T3, Type-1 angiotensin II receptor (Homo sapiens, UniProt P30556).
T3 sequence (P30556 whole entry): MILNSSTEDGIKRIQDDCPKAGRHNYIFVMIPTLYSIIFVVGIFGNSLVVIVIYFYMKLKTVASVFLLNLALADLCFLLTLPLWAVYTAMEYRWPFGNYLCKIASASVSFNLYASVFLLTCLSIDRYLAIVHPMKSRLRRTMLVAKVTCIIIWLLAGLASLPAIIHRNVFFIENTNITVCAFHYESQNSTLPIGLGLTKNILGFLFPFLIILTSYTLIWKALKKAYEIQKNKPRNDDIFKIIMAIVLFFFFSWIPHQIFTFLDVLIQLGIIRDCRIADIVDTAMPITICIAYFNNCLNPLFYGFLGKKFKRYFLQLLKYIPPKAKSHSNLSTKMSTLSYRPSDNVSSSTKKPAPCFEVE

Experiment [4] addresses T1, Gamma-aminobutyric acid receptor subunit alpha-1.
A further experiment addresses T4, Glucocorticoid receptor (Homo sapiens, UniProt P04150).
T4 sequence (P04150 whole entry): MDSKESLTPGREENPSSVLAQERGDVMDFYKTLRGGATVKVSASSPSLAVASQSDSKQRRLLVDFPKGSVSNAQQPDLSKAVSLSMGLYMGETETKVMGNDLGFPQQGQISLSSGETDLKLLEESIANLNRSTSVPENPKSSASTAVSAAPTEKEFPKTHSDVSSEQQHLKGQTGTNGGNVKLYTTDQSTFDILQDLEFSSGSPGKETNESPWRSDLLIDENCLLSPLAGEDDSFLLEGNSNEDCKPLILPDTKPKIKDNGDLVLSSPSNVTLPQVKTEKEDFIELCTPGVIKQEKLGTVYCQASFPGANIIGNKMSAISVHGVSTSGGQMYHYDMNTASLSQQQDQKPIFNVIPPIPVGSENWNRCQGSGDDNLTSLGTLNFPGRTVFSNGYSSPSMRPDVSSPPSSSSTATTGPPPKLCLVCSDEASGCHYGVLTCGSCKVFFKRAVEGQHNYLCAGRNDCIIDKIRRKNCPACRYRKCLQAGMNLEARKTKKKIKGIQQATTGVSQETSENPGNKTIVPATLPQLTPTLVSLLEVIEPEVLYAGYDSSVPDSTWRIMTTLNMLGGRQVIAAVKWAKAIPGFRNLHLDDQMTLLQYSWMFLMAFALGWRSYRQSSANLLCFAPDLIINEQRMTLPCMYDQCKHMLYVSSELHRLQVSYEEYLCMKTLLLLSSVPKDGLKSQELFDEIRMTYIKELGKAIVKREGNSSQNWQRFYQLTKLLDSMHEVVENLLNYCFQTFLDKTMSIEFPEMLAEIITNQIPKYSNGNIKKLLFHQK

For the next experiment, the target named is T5, Endothelin-1 receptor (Homo sapiens, UniProt P25101).
T5 sequence (P25101 whole entry): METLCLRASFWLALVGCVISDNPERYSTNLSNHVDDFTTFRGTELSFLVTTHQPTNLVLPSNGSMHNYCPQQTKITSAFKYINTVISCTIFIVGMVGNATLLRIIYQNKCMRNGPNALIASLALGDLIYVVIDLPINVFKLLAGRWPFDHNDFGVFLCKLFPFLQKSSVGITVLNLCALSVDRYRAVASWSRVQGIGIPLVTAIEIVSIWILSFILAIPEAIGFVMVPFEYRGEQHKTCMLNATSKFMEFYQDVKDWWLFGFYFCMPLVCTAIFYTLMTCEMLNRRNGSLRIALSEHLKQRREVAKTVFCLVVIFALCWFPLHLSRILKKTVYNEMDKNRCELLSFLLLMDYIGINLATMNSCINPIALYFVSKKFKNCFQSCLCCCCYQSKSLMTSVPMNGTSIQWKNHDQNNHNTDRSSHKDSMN

Experiment [5] addresses T6, Muscarinic acetylcholine receptor M2 (Homo sapiens, UniProt P08172).
T6 sequence (P08172 whole entry): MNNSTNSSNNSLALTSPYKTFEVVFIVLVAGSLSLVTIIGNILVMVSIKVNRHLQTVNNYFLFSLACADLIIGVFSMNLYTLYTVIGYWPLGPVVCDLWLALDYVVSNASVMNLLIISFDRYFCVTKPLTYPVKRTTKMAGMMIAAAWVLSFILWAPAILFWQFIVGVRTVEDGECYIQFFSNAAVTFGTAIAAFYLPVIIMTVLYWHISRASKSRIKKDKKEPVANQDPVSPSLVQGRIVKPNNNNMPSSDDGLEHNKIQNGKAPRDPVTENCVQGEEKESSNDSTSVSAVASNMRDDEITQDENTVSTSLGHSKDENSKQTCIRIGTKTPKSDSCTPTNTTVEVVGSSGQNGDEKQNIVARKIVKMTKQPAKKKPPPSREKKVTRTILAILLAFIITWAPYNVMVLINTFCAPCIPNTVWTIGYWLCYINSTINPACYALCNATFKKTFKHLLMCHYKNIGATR
The class given is functional, cell-based.

Experiment [6] has as its target 3',5'-cyclic-AMP phosphodiesterase 4D (Homo sapiens, UniProt Q08499). The experiment is classed as functional.

Molecules are shown by their SMILES.
Further: assay procedure not described here.

Chain of Vasopressin V2 receptor (P30518 whole entry): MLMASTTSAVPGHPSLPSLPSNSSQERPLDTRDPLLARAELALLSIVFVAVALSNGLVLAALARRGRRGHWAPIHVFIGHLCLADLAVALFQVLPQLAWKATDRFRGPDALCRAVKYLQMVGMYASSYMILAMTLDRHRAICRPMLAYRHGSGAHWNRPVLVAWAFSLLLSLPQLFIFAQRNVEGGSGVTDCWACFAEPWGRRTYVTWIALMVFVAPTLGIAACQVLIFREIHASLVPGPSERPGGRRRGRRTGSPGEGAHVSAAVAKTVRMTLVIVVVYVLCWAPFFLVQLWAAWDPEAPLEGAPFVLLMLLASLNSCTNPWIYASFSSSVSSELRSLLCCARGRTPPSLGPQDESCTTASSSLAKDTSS
Chain of Cannabinoid receptor 1 (P21554 whole entry): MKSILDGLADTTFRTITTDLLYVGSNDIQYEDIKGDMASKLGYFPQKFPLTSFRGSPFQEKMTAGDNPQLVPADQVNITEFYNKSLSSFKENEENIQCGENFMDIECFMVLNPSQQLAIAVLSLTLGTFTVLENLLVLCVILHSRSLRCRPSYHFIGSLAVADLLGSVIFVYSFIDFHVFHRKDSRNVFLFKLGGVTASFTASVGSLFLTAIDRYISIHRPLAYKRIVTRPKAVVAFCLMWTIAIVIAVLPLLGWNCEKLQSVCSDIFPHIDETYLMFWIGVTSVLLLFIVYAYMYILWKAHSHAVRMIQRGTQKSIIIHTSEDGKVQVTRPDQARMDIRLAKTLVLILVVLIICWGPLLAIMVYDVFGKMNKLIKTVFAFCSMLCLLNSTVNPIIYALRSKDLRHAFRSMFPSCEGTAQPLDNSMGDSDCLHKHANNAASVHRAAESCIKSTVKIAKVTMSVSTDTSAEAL
Chain of 3',5'-cyclic-AMP phosphodiesterase 4D (Q08499 whole entry): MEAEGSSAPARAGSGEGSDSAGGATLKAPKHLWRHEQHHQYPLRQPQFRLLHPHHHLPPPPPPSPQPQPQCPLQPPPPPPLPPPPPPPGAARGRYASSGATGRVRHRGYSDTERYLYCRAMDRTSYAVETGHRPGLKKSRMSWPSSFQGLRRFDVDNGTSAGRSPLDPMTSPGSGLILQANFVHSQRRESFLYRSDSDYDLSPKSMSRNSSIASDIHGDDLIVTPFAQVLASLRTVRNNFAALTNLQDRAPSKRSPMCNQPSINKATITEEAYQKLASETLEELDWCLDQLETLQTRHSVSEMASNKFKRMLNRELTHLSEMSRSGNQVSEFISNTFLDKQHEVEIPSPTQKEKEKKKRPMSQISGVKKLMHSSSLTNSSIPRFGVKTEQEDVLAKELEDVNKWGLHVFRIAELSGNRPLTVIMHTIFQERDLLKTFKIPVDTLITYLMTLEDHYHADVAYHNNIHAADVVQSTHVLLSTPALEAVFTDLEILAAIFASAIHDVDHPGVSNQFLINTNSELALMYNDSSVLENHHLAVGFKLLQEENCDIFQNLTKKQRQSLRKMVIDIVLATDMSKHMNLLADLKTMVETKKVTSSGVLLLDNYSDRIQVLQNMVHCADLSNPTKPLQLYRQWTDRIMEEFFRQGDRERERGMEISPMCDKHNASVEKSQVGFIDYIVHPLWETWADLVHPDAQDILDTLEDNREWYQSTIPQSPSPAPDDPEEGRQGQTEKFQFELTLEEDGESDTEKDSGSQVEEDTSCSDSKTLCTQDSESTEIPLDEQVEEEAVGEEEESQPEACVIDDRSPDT
Chain of 5-hydroxytryptamine receptor 2B (P41595 whole entry): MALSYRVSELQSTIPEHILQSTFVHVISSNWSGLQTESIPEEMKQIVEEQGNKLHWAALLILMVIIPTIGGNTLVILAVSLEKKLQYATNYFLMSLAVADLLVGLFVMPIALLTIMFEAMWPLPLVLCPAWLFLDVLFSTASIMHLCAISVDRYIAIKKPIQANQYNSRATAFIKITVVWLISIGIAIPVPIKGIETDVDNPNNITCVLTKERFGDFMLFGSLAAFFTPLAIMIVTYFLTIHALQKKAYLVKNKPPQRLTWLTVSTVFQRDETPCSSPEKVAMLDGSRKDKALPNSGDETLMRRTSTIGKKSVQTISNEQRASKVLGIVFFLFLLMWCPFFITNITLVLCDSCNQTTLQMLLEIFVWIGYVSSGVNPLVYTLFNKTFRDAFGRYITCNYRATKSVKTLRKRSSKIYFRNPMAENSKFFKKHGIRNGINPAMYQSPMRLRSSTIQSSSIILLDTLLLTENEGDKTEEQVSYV
T1 sequence (P62813 whole entry): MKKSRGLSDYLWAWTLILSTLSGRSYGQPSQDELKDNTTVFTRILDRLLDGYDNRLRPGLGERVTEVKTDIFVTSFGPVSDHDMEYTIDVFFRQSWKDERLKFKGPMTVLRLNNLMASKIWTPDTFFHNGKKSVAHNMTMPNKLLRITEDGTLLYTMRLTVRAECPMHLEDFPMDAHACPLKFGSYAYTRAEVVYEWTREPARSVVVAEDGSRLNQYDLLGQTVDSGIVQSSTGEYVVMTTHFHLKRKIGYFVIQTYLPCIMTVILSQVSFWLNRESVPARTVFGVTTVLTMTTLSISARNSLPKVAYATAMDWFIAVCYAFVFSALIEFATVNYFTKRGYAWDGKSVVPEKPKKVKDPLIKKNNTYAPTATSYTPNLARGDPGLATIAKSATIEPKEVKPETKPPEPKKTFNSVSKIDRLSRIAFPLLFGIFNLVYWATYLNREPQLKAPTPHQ

In general, AC50 refers to the concentration at which the activity in the assay is half-maximal. `CC(C)(N)Cc1ccccc1` [PHENTERMINE]: the AC50 in experiment [1] is > 10 µM; on Vasopressin V2 receptor, > 30 µM; at Cannabinoid receptor 1, > 30 µM; on Adenosine receptor A1, > 30 µM; in [2], > 10 µM; on Histamine H1 receptor, > 10 µM. Also, the AC50 was > 30 µM in [3]; > 10 µM in experiment [4]; > 30 µM at Glucocorticoid receptor; > 30 µM on Endothelin-1 receptor; > 10 µM in experiment [5]; > 30 µM in experiment [6].

With `CCN1C(=O)NC(c2ccccc2)C1=O` (centres undefined) [ETHOTOIN], the AC50 (in [1]; at Vasopressin V2 receptor; at Cannabinoid receptor 1; on Adenosine receptor A1; in experiment [2]; at Histamine H1 receptor) was > 30 µM each time. The AC50 (in [3]; on Glucocorticoid receptor; on Endothelin-1 receptor; in experiment [5]; in experiment [6]) was > 30 µM in each case.

Consider `CCCCC[C@H](O)CC[C@@H]1[C@H]2Cc3cccc(OCC(=O)O)c3C[C@H]2C[C@H]1O` [TREPROSTINIL], for which the AC50 (in experiment [1]; on Vasopressin V2 receptor; at Cannabinoid receptor 1; at Adenosine receptor A1; in experiment [2]; at Histamine H1 receptor) was > 30 µM in each case. Moreover, the AC50 (in experiment [3]; in experiment [4]; on Glucocorticoid receptor; at Endothelin-1 receptor; in experiment [5]; in [6]) was > 30 µM each time.

With `CS(=O)(=O)NC(=O)CCC/C=C\C[C@H]1C(=O)C[C@@H](O)[C@@H]1/C=C/[C@@H](O)COc1ccccc1` [SULPROSTONE], the concentration at half-maximal activity (AC50) (in experiment [1]; on Vasopressin V2 receptor; at Cannabinoid receptor 1; on Adenosine receptor A1; in experiment [2]; on Histamine H1 receptor) was > 30 µM throughout. Also, the AC50 (in [3]; in [4]; on Glucocorticoid receptor; on Endothelin-1 receptor; in experiment [5]; in experiment [6]) was > 30 µM throughout.

With `CC(=O)Oc1cccc2c1C(=O)c1c(OC(C)=O)cc(C(=O)O)cc1C2=O` [DIACEREIN], the AC50 in [1] is > 30 µM; on Vasopressin V2 receptor, > 30 µM; at Cannabinoid receptor 1 it was > 30 µM; at Adenosine receptor A1, 24 µM; at Histamine H1 receptor, > 30 µM; in experiment [3] it was > 30 µM. In addition, the AC50 in experiment [4] is > 30 µM; on Glucocorticoid receptor, > 30 µM; on Endothelin-1 receptor, > 30 µM; in experiment [6] it was 8.8 µM.

As for `CCN(CC)CCCN(c1ccccc1)C1Cc2ccccc2C1` [APRINDINE], the AC50 in experiment [1] is > 30 µM; on Vasopressin V2 receptor, > 30 µM; on Cannabinoid receptor 1, > 30 µM; on Adenosine receptor A1, > 30 µM; in experiment [2] it was > 30 µM; at Histamine H1 receptor, 1.18 µM. In addition, the AC50 (in experiment [3]; in experiment [4]; at Glucocorticoid receptor; at Endothelin-1 receptor; in experiment [5]; in experiment [6]) was > 30 µM throughout.

Turning to `CC(=O)OCC1=C(C(=O)O)N2C(=O)[C@@H](NC(=O)Cc3cccs3)[C@H]2SC1` [CEPHALOTHIN], the AC50 (in experiment [1]; at Vasopressin V2 receptor; at Cannabinoid receptor 1; at Adenosine receptor A1; in [2]; at Histamine H1 receptor) was > 30 µM in each case. Further, the AC50 (in [3]; on Glucocorticoid receptor; at Endothelin-1 receptor; in [5]; in [6]) was > 30 µM in each case.

For the molecule `O=C(O)c1ccc2nc(-c3cc(Cl)cc(Cl)c3)oc2c1`, the AC50 (in experiment [1]; at Vasopressin V2 receptor; at Adenosine receptor A1; in [2]; at Histamine H1 receptor; in experiment [3]) was > 30 µM throughout. In addition, the AC50 is > 30 µM in [4]; > 30 µM at Glucocorticoid receptor; > 30 µM on Endothelin-1 receptor; > 30 µM in experiment [5]; 10.3 µM in experiment [6].

With `CN(C)CCOCC(=O)NC12CC3CC(CC(C3)C1)C2` [TROMANTADINE], the AC50 (in experiment [1]; at Vasopressin V2 receptor; on Cannabinoid receptor 1; at Adenosine receptor A1; in experiment [2]; on Histamine H1 receptor) was > 30 µM in each case. For the same molecule, the AC50 (in experiment [3]; on Glucocorticoid receptor; on Endothelin-1 receptor; in experiment [5]; in experiment [6]) was > 30 µM throughout.

Take `CC1=C(C(=O)O)N2C(=O)[C@@H](NC(=O)[C@H](N)C3=CCC=CC3)[C@H]2SC1` [CEPHRADINE]: the AC50 (in [1]; on Vasopressin V2 receptor; at Cannabinoid receptor 1; on Adenosine receptor A1; in [2]; on Histamine H1 receptor) was > 30 µM in each case. The half-maximal activity concentration (AC50) (in [3]; at Glucocorticoid receptor; on Endothelin-1 receptor; in experiment [5]; in experiment [6]) was > 30 µM in each case.

For the molecule `O=C(O)c1nn(Cc2ccc(Cl)cc2Cl)c2ccccc12` [LONIDAMINE], the AC50 (in experiment [1]; on Vasopressin V2 receptor; at Cannabinoid receptor 1; at Adenosine receptor A1; in [2]; at Histamine H1 receptor) was > 30 µM in each case. Besides, the AC50 (in [3]; at Glucocorticoid receptor; on Endothelin-1 receptor; in [5]; in [6]) was > 30 µM throughout.

Source of the values: ChEMBL document CHEMBL5291721, “A preclinical secondary pharmacology resource illuminates target-adverse drug reaction associations of marketed drugs” (Nat Commun, 2023).
